The supplement of paper PMC5579334

What was measured:
HS-Sch-2 = assay: relative IC50 (inflection point of fitted dose-response curve, CellTiter-Glo viability, 72 h; top asymptote may be below 50% inhibition); higher = less potent
Summary of the method: (§1)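 After seeding 750–1000 cells per well of MPNST cell lines or primary human Schwann cells into 384-well plates preprinted with each compound at five concentrations in 10-fold steps, plates were kept 72 h at 37 °C, 5% CO2. Viability was read as CellTiter-Glo ATP luminescence relative to vehicle and positive-control wells, with duplicates averaged where present. The data were fitted with four-parameter logistic models. Drug sensitivity score and relative IC50, censored at the top concentration, derive from the fits, and percent inhibition refers to the top concentration.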

HS-PSS [1] = assay: as above
Summary of the method: as §1

YST-1 = assay: as above
Summary of the method: as §1

HS-PSS [2] = assay: relative IC50 (inflection point of fitted dose-response curve, CellTox-Green cytotoxicity, 72 h; top asymptote may be below 50%); higher = less potent
Summary of the method: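 For 72 h at 37 °C, MPNST cell lines and primary human Schwann cells were exposed in 384-well plates to five 10-fold compound dilutions. CellTox-Green, added before seeding at a final 1:1000 dilution, gave fluorescence from DNA released by disrupted cells. Signals were scaled to vehicle and positive-control wells, cultures failing plate quality control were left out, and four-parameter logistic fits were applied. Relative IC50 and drug sensitivity score were derived from the fits, with IC50 censored at the top concentration.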

| Structure (SMILES) | relative IC50 (HS-Sch-2) [µM] | relative IC50 (HS-PSS [1]) [µM] | relative IC50 (YST-1) [µM] | relative IC50 (HS-PSS [2]) [µM] |
| --- | --- | --- | --- | --- |
| CCNC(=O)C[C@@H]1N=C(c2ccc(Cl)cc2)c2cc(OC)ccc2-n2c(C)nnc21 | 0.624 | 0.709 | 0.501 | > 10 |
| CNC(=O)c1ccc(C)c(-n2c(C)cc(OCc3ccc(F)cc3F)c(Br)c2=O)c1 | > 1 | > 1 | 0.0446 | > 1 |
| CNc1ncc2cc(-c3cc(NC(=O)NCCC(C)(C)C)c(F)cc3C)c(C)nc2n1 | 0.235 | 3.82 | 0.561 | 3.59 |
| C[C@@H](Oc1ccc2[nH]nc(/C=C/c3cnn(CCO)c3)c2c1)c1c(Cl)cncc1Cl | 0.118 | 0.187 | 0.114 | 0.245 |
| Cc1nc(Nc2n[nH]c3c2CN(C(=O)N[C@H](CN(C)C)c2ccccc2)C3(C)C)c2sccc2n1 | 0.413 | 0.0225 | 0.067 | 0.127 |
| Cc1nn(C)c(COc2ccc(N3CCN(S(=O)(=O)N(C)C)CC3)cc2)c1-c1cccc2c(CCCOc3cccc4ccccc34)c(C(=O)O)n(CCN3CCOCC3)c12 | 15.4 | 17.8 | 12.7 | 14.9 |
| Cn1cc(C2=Nc3cc(NC(=O)C(N)C4CCCCC4)cc4c3C2=CNNC4=O)cn1 (stereo not given) | 0.108 | 0.0771 | 0.163 | > 10 |
| NC[C@@](O)(c1ccc(Cl)cc1)c1ccc(-c2cn[nH]c2)cc1 | 1.51 | 2.03 | 2.97 | 2.78 |
| O=C(O)c1ccc(CN2CCC(CN[C@@H]3C[C@H]3c3ccccc3)CC2)cc1 | > 10 | > 10 | > 10 | > 10 |
| O=c1cc(N2CCOCC2)oc2c(-c3ccccc3)cccc12 | 13.7 | 13.4 | 7.66 | 18.3 |
| Cn1cc(C[C@@H](N)C(=O)O)c2ccccc21 [1-methyl-D-tryptophan] | > 5 | > 5 | > 5 | > 5 |
| CC(C)[C@H](C(=O)Nc1ccc(C(=O)NO)cc1)c1ccccc1 [AR-42] | 1.15 | 1.06 | 0.27 | 1.92 |
| COc1cc(N2CCC(N3CCN(C)CC3)CC2)ccc1Nc1ncnc(Nc2ccccc2S(=O)(=O)C(C)C)n1 [ASP3026] | > 10 | > 10 | > 10 | > 10 |
| COc1cc(N2CCN(C)CC2)ccc1Nc1nccc(-c2cn(C)c3cnccc23)n1 [AZ191] | 3.35 | 2.61 | 3.4 | 2.46 |
| N[C@@H]1CCCN(c2c(/C=C3\SC(=O)NC3=O)cccc2-c2ccccc2)C1 [AZD1208] | > 10 | > 10 | 0.204 | > 10 |
| N#Cc1ccc2[nH]c(O)c(-c3ccc(CN4CCOCC4)cn3)c2c1 [AZD-1080] | 3.63 | 2.38 | > 10 | > 10 |
| C[C@@H](Nc1cc(F)cc(F)c1)c1cc(C(=O)N(C)C)cc2c(=O)cc(N3CCOCC3)oc12 [AZD-8186] | > 1 | > 1 | 0.357 | > 1 |
| Cc1cc(C(=O)NOCCO)c(Nc2ccc(I)cc2F)n(C)c1=O [AZD-8330] | 0.174 | 0.322 | > 10 | > 10 |
| CN(C)Cc1c(C(=O)NCCOc2ccc(C(=O)NO)cc2)oc2ccccc12 [Abexinostat] | 0.197 | 0.333 | 0.0723 | 1.43 |
| COc1cccc2c1C(=O)c1c(O)c3c(c(O)c1C2=O)C[C@@](O)(/C(CO)=N/NC(=O)CCCCCN1C(=O)C=CC1=O)C[C@@H]3O[C@H]1C[C@H](N)[C@H](O)[C@H](C)O1 [Aldoxorubicin] | 0.105 | 0.158 | 0.0515 | 0.181 |

| Structure (SMILES) | relative IC50 (HS-Sch-2) [µM] | relative IC50 (HS-PSS [1]) [µM] | relative IC50 (YST-1) [µM] | relative IC50 (HS-PSS [2]) [µM] |
| --- | --- | --- | --- | --- |
| S=C(NCc1ccc2c(c1)OCO2)N1CCN(c2ncnc3c2oc2ccccc23)CC1 [Amuvatinib] | 2.07 | 1.01 | 3.54 | > 10 |
| Cc1c(CN2CCN(C(=O)[C@H](C)O)CC2)sc2c(N3CCOCC3)nc(-c3cnc(N)nc3)nc12 [Apitolisib] | 0.732 | 0.715 | 0.167 | > 10 |
| O=C(Nc1cccc(Nc2ncc(Br)c(NCCc3cnc[nH]3)n2)c1)N1CCCC1 [BX-912] | 2.75 | 1.93 | 0.867 | > 10 |
| CCS(=O)(=O)N1CC(CC#N)(n2cc(-c3ncnc4[nH]ccc34)cn2)C1 [Baricitinib] | > 2.5 | > 2.5 | > 2.5 | > 2.5 |
| CN(C)c1cc2c(cc1Sc1nc3c(N)nccc3n1CCNCC(C)(C)C)OCO2 [CUDC-305] | 0.219 | 0.51 | 0.516 | 0.384 |
| COc1ccc(-c2nc(N3CCOCC3)c3sc(CN(C)c4ncc(C(=O)NO)cn4)cc3n2)cn1 [CUDC-907] | 0.0243 | 0.0207 | 0.00312 | 0.0667 |
| Cc1nc(N)sc1-c1ccnc(Nc2ccc(N3CCOCC3)cc2)n1 [CYC-116] | 1.58 | 1.39 | 0.51 | > 10 |
| CC[C@@]1(O)C(=O)OCc2c1cc1n(c2=O)Cc2cc3ccccc3nc2-1 [Camptothecin] | 0.0634 | 0.199 | 0.0401 | 0.358 |
| CCS(=O)(=O)N1CCN(c2ccc(Nc3ncc(C(N)=O)c(NC4CC4)n3)cc2)CC1 [Cerdulatinib] | 1.88 | 1.27 | > 10 | > 10 |
| CCN(CC)CCCC(C)Nc1ccnc2cc(Cl)ccc12 (stereo not given) [Chloroquine] | 3.75 | 2.73 | 14.7 | 8.35 |
| CC(C)[C@H]1C(=O)N[C@@H](CCCNC(=N)N)C(=O)NCC(=O)N[C@@H](CC(=O)O)C(=O)N[C@H](Cc2ccccc2)C(=O)N1C [Cilengitide] | 3.25 | > 10 | > 10 | > 10 |
| N.N.[Cl][Pt][Cl] [Cisplatin] | 1.17 | 4.7 | 5.18 | 2.27 |
| COc1c(OCCCN2CCOCC2)ccc2c1N=C(NC(=O)c1cnc(N)nc1)N1CCN=C21 [Copanlisib] | 0.113 | 0.405 | 0.0221 | > 1 |
| CC(=O)N(O)CCCCCNC(=O)CCC(=O)N(O)CCCCCNC(=O)CCC(=O)N(O)CCCCCN [Deferoxamine] | 1.07 | 1.48 | 1.97 | 3.24 |
| CCN(CC)C(=S)SSC(=S)N(CC)CC [Disulfiram] | 0.6 | 0.291 | 0.303 | 6.65 |
| Cc1cc(Nc2cc(N3CCN(C)CC3)nc(/C=C/c3ccccc3)n2)n[nH]1 [ENMD-2076] | 0.763 | 1.06 | 0.361 | 2.29 |
| Cc1cc(C)c(CNC(=O)c2cc(-c3ccc(CN4CCOCC4)cc3)cc3c2cnn3C2CCCC2)c(=O)[nH]1 [EPZ-5687] | > 10 | > 10 | > 10 | > 10 |
| CCn1c(=O)c(-c2ccc(Cl)cc2Cl)cc2cnc(Nc3ccc(N4CCNCC4)c(F)c3)nc21 [FRAX486] | 0.133 | 1.75 | > 5 | > 5 |
| Cc1cnc(Nc2ccc(OCCN3CCCC3)cc2)nc1Nc1cccc(S(=O)(=O)NC(C)(C)C)c1 [Fedratinib] | 1.18 | 1.44 | 1.52 | 3.37 |
| COc1cc(Nc2ncc(F)c(Nc3ccc4c(n3)N(COP(=O)(O)O)C(=O)C(C)(C)O4)n2)cc(OC)c1OC [Fostamatinib] | 0.416 | 0.514 | 0.685 | > 2.5 |

| Structure (SMILES) | relative IC50 (HS-Sch-2) [µM] | relative IC50 (HS-PSS [1]) [µM] | relative IC50 (YST-1) [µM] | relative IC50 (HS-PSS [2]) [µM] |
| --- | --- | --- | --- | --- |
| O=C(NOCCO)c1ccc2cncn2c1Nc1ccc(I)cc1F [GDC-0623] | 0.368 | 0.3 | > 2.5 | > 2.5 |
| Cn1nccc1Nc1nccc(-c2ccn([C@H](CO)c3ccc(Cl)c(F)c3)c(=O)c2)n1 [GDC-0994] | 2.76 | > 10 | 4.28 | > 10 |
| CCCOc1ccn2c(C(C)=O)cc(-c3ccccc3S(C)(=O)=O)c2c1 [GSK2801] | > 10 | > 10 | > 10 | > 10 |
| CN(C)C1CCN(C(=O)c2ccc(NC(=O)Nc3ccc(-c4nc(N5CCOCC5)nc(N5CCOCC5)n4)cc3)cc2)CC1 [Gedatolisib] | 0.0472 | 0.00908 | 0.0164 | > 1 |
| CCN(CC)Cc1ccc2cc(COC(=O)Nc3ccc(C(=O)NO)cc3)ccc2c1 [Givinostat] | 0.166 | 0.351 | 0.0637 | 0.253 |
| O=C(Nc1nc2ccccc2n1CCN1CCOCC1)c1cccc([N+](=O)[O-])c1 [IRAK1/4 inhibitor] | > 25 | > 25 | > 25 | > 25 |
| COc1cc(C(=O)O)ccc1NC(=O)[C@@H]1N[C@@H](CC(C)(C)C)[C@](C#N)(c2ccc(Cl)cc2F)[C@H]1c1cccc(Cl)c1F [Idasanutlin] | > 10 | 0.178 | 0.062 | > 10 |
| Cc1sc2c(c1C)C(c1ccc(Cl)cc1)=N[C@@H](CC(=O)OC(C)(C)C)c1nnc(C)n1-2 [JQ1] | 0.331 | 0.379 | 0.28 | > 10 |
| NC(=O)N1CCC(CC(=O)N2CCC([C@H]3c4ncc(Br)cc4CCc4cc(Cl)cc(Br)c43)CC2)CC1 [Lonafarnib] | 1.66 | 2.15 | 1.37 | > 10 |
| Cc1c(F)cc(C(=O)NC2CC2)cc1-c1ccc(C(=O)NCC(C)(C)C)cn1 [Losmapimod] | > 10 | > 10 | 0.0249 | > 10 |
| CC[C@H](C)C(=O)O[C@H]1C[C@@H](C)C=C2C=C[C@H](C)[C@H](CC[C@@H]3C[C@@H](O)CC(=O)O3)[C@H]21 [Lovastatin] | > 10 | > 10 | > 10 | > 10 |
| CCNC(=O)c1noc(-c2cc(C(C)C)c(O)cc2O)c1-c1ccc(CN2CCOCC2)cc1 [Luminespib] | 0.011 | 0.0393 | 0.0103 | 0.0518 |
| CN(C[C@@H]1COCCO1)S(=O)(=O)Nc1ccc2ccc3ncc(-c4cnn(C)c4)cc3c(=O)c2c1 [MK-2461] | 3.48 | 4.1 | 1.68 | > 10 |
| Cn1cc(-c2cnn3c(N)c(Br)c([C@@H]4CCCNC4)nc23)cn1 [MK-8776] | 0.36 | > 2.5 | 0.362 | > 2.5 |
| CC(=O)O[C@]1(C(C)=O)CC[C@H]2[C@@H]3C=C(C)C4=CC(=O)CC[C@]4(C)[C@H]3CC[C@@]21C [Megestrol acetate] | > 10 | > 10 | > 10 | > 10 |
| N[C@@H](Cc1ccc(N(CCCl)CCCl)cc1)C(=O)O [Melphalan] | > 12.5 | > 12.5 | > 12.5 | > 12.5 |
| CCN(CC)CCCC(C)Nc1c2ccc(Cl)cc2nc2ccc(OC)cc12 (stereo not given) [Mepacrine] | 1.44 | 1.44 | 1.79 | 1.58 |
| Cc1ccc(C(=O)Nc2ccc(Oc3cc4cnn(C)c4cc3-c3cn[nH]c3)c(F)c2)c(=O)n1-c1ccc(F)cc1 [Merestinib] | 0.371 | 0.245 | 0.15 | > 1 |
| FC(F)(F)c1ccc(/C=C/c2nc(COc3ccc(CCCCn4ccnn4)cc3)co2)cc1 [Mubritinib] | 0.0197 | 0.0109 | 0.00605 | > 1 |
| Cc1cc(OCc2nnc(SC3CCCC3)n2-c2cccnc2)ccc1-c1ccc(S(C)(=O)=O)cc1 [NMS-873] | 0.193 | 0.101 | 1.49 | 2.95 |
